# Measured values reported in patent publication US9668960B2, “Methods useful in studying or modulating skin or hair pigmentation, plant extracts for use in compositions and cosmetic care method” (L V M H RECHERCHE, priority 2008, dated 2017).
# Tested on: Myo-X
# Assay: Myo-X expression by double immunolabelling in normal human melanocytes
# Type: cell-based
# Protocol: Immunofluorescence staining: For EM:KC co-culture studies fully matched melanocytes (p4) and keratinocytes (p2) were seeded onto 8-well Lab-Tek® chamber slides at a cell density of 1×10^4 cells/well and in a ratio of 1 melanocyte to 10 keratinocytes. Co-cultures were maintained overnight (16 h) in a mixture of full K-SFM and MEM (co-culture medium) to allow cell attachment, followed by medium replenishment for a further 24 h. Cells were then fixed in ice-cold methanol for 10 min at −20° C., washed in PBS and then blocked with 10% donkey serum for the detection of protein expression in filopodia.
# For double labelling experiments the first primary antibody, Myo-X (1:100) (Santa Cruz, Calif., USA) was applied overnight at 4° C., followed by incubation with FITC-conjugated secondary antibody (1:100) for 1 h at room temperature. The second primary antibody, either cytokeratin (1:100) (Abeam, Cambridge, UK) or β-Actin (1:100) (Santa Cruz, USA) or Fascin (1:100) (Santa Cruz, USA) or NKi/beteb (1:30) (Monosan) was applied for 1 h at room temperature followed by a TRITC-conjugated secondary antibody (1:100) (Jackson Immunoresearch Laboratories, Inc., West Grove, USA). DAPI (Vector Laboratories, Burlingame, Calif.) was used to stain nuclei. Images were captured with a cooled Hamamatsu digital camera using a 100× objective and post-processed using Paint Shop Pro (Jasc Software Ver. 7. CA, USA). Negative controls included the omission of primary antibody and replacement with non-immune serum from secondary antibody host and inclusion of secondary antibodies.
# Myo-X was also detected in EM filopodia.
compound,measurement,setting,value
CC(C)Cn1c(=O)n(C)c(=O)c2[nH]cnc21 [IBMX],"Myo-X expression in EM (immunolabelling, words)",compared with untreated cells,increased the expression of Myo-X
same,Myo-X localization in EM filopodia,compared with untreated cells,enhanced Myo-X localization in EM filopodia
same,overall number of filopodia,total number of yellow spots beyond EM dendritic tips,increased
